The assay concerns the target Caspase 1 (CASP1) (Homo sapiens, UniProt P29466). Kind of assay: live-cell GFP caspase-1. Format: cell-based.

Data on one compound can be found in PMC8865862 (Journal of Inflammation Research, 2022).

Structures are written as SMILES.

Chain of Caspase 1 (CASP1) (P29466 whole entry): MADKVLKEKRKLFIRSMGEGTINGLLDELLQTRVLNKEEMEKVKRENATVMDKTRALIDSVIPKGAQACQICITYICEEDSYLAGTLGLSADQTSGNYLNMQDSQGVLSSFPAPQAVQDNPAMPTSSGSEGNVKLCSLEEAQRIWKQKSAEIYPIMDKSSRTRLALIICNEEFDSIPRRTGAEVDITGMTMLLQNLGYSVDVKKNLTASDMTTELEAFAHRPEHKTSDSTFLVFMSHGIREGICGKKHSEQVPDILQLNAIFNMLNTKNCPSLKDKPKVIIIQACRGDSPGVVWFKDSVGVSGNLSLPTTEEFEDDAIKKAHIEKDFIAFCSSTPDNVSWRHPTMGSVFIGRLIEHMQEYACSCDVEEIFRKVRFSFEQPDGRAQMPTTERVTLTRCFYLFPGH
Chain of Caspase 1 (CASP1) (Q96P20 whole entry R262W partner): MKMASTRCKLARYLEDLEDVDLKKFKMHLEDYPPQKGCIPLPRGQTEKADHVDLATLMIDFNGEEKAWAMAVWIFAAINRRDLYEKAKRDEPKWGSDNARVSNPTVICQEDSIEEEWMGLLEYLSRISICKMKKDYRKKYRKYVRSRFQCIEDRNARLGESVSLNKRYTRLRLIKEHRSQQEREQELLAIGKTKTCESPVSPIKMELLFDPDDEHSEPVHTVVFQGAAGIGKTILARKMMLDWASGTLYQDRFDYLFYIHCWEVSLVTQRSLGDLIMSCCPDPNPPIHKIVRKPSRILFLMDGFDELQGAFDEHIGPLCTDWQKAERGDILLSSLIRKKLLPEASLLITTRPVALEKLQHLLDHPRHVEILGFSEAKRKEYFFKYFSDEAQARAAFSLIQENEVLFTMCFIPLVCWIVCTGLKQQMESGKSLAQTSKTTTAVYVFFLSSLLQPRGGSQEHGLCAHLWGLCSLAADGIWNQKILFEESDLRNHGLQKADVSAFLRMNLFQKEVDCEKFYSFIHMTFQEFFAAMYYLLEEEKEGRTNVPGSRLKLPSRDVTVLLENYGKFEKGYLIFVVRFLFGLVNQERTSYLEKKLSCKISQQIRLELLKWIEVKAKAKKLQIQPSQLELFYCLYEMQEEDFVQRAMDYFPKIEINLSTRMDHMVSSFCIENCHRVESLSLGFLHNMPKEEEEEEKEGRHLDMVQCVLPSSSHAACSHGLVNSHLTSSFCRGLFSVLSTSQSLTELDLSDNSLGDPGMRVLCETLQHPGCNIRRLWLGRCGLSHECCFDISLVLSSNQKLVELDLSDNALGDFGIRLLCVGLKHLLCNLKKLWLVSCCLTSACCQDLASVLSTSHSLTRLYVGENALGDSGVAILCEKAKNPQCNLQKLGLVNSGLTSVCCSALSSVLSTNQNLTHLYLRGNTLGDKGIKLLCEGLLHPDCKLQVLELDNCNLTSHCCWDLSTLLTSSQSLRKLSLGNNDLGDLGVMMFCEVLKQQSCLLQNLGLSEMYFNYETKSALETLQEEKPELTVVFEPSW
Chain of Caspase 1 (CASP1) (Q9ULZ3 whole entry partner): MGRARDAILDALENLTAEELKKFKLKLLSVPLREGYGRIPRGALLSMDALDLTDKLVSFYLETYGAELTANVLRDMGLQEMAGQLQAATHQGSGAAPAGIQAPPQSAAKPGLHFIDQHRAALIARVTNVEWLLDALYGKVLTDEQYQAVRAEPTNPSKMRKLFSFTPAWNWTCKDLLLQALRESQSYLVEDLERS

The compound `CC(C)(C)[C@H](NC(=O)c1ccc(N)c(Cl)c1)C(=O)N1CCC[C@H]1C(=O)N[C@H](C=O)CC(=O)O` [VRT-043198] yielded an IC50 of 4.66 µM.
